In this assay the test system is S. tritici. The experiment in a line: S. tritici infection of wheat seedlings after spraying first leaves (induced resistance). It counts as in vivo, Septoria tritici. As for the experimental part: Wheat seedlings at the 2 leaf stage were used in the study. Plants were grown singly in pots and were split into two batches. First leaves were sprayed with pyraclostrobin at the recommended rate (first leaves of controls were sprayed with distilled water) and the plants to be used for disease assessment were inoculated with S. tritici once leaves had dried. Both first and second leaves were inoculated by spraying with a spore suspension of 1×10^5 spores/ml of distilled water containing a drop of Tween 20. Immediately after inoculation, pots were placed in water-saturated trays and covered with clear polyethene bags for 48 h. Thereafter plants were grown at 18° C. with 12 h/12 h light/dark alternation. Infection intensity was assessed 18 days after inoculation by estimating the % leaf area covered by symptoms.

A value given as a limit tells only on which side of the number the result lay.

As to pyraclostrobin, under “after 18 days, compared to non treated controls”, the “reduced infection on first leaves” value is 65%. In addition, the “reduced infection on second leaves” value (after 18 days, compared to non treated controls, only first leaves sprayed) is recorded as 61%. Where the note is “wheat seedlings, first leaves sprayed at the recommended rate, 18 days after inoculation, means ±SE of 10 replicates, pyraclostrobin-resistant isolate”, the “Infection (% leaf area showing symptoms) First leaf” value was 17 ± 2.3 % leaf area showing symptoms. Where the note is “wheat seedlings, isolate resistant to pyraclostrobin”, the “reduces S. tritici infection of first and second leaves” value was above 60%. In addition, the “Infection (% leaf area showing symptoms) Second leaf” value (wheat seedlings, only first leaves sprayed at the recommended rate, 18 days after inoculation, means ±SE of 10 replicates, pyraclostrobin-resistant isolate) is given as 16 ± 1.4 % leaf area showing symptoms.
